# Data reported in publication PMC3446790 (Cellular signalling, 2010).
# “Also recorded” adds a separate entry of the source.
# Key:
# C57BL/6 mice = experiment: Whole blood lymphocyte counting in mice; assay type: in vivo; settings: 1 mg/kg intraperitoneal
# recombinant ATX = recombinant ATX (Homo sapiens, UniProt Q13822); experiment: ATX assay; assay type: biochemical; settings: FS-3 substrate
# IEC-6 cells = experiment: DNA fragmentation ELISA, camptothecin-induced apoptosis; assay type: cell-based, rat
# sphingosine kinase 1 = settings: cited from earlier work
# P2Y10/Gα16 = P2Y10/Gα16 (Homo sapiens, UniProt O00398+P30679); experiment: Antagonism of S1P-induced Ca2+ mobilization in CHO cells expressing P2Y10/Gα16; assay type: cell-based
# S1P1 [1] = target: T1, S1P1 (Homo sapiens, UniProt P21453); experiment: Receptor desensitization assay in S1P1-expressing HTC4 cells; assay type: cell-based; settings: 300 nM, 2 h preincubation
# S1P4 [2] = target: T2, S1P4 (Homo sapiens, UniProt O95977); experiment: Antagonism of S1P-induced Ca2+ mobilization in S1P4-expressing HTC4 cells; assay type: cell-based
# T2 sequence (O95977 1-384): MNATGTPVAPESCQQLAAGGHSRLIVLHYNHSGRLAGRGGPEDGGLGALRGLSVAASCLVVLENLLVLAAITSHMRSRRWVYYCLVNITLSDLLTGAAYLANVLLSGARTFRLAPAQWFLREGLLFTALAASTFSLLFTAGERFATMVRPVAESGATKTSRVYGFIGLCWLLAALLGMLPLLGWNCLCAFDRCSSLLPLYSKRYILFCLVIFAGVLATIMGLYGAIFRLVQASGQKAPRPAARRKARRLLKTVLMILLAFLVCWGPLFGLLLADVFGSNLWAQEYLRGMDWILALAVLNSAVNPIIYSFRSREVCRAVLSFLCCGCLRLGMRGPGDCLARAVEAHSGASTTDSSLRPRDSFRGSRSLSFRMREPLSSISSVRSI
# S1P5 [3] = target: T3, S1P5 (Homo sapiens, UniProt Q9H228); experiment: Ca2+ mobilization; assay type: cell-based; settings: concentrations up to 10 μM
# T3 sequence (Q9H228 whole entry, species assumed): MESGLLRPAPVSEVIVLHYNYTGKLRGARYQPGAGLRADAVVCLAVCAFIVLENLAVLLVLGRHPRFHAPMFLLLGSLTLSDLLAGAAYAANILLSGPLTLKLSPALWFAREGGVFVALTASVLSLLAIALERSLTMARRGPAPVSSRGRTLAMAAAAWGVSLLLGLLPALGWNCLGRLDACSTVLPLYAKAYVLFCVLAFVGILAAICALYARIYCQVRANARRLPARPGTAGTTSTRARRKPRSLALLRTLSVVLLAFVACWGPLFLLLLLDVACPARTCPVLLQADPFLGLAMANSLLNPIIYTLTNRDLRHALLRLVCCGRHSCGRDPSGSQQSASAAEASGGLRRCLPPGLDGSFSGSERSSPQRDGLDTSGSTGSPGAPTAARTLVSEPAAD
# S1P1 [4] = target: T1, S1P1; experiment: Ca2+ mobilization; assay type: cell-based; settings: Ca2+ mobilization, concentrations up to 10 μM
# S1P1 [5] = target: T1, S1P1; experiment: Antagonism of S1P-induced Ca2+ mobilization in S1P1-expressing HTC4 cells; assay type: cell-based
# [6] = system: ERK1/2 and AKT in IEC-6 cells; experiment: Immunoblot analysis of ERK1/2 and AKT phosphorylation; assay type: cell-based, rat
# S1P1-eGFP = S1P1-eGFP (Homo sapiens, UniProt P21453); assay type: cell-based; settings: 100 nM, 30 min, HEK293
# S1P3 [7] = target: T4, S1P3 (Homo sapiens, UniProt Q99500); experiment: Ca2+ mobilization; assay type: cell-based; settings: Ca2+ mobilization, concentrations up to 10 μM
# T4 sequence (Q99500 whole entry, species assumed): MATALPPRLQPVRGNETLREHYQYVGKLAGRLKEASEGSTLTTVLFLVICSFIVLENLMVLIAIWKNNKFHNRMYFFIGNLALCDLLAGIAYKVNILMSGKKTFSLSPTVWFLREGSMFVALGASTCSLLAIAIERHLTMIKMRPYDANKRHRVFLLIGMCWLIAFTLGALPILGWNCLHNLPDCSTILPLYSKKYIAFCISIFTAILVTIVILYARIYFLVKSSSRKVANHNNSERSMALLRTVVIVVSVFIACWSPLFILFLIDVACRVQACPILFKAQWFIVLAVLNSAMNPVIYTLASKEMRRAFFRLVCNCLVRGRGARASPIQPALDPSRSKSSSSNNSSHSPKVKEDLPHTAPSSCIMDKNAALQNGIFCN
# S1P2 [8] = target: T5, S1P2 (Homo sapiens, UniProt O95136); experiment: Antagonism of S1P-induced Ca2+ mobilization in S1P2-expressing HTC4 cells; assay type: cell-based
# T5 sequence (O95136 whole entry, species assumed): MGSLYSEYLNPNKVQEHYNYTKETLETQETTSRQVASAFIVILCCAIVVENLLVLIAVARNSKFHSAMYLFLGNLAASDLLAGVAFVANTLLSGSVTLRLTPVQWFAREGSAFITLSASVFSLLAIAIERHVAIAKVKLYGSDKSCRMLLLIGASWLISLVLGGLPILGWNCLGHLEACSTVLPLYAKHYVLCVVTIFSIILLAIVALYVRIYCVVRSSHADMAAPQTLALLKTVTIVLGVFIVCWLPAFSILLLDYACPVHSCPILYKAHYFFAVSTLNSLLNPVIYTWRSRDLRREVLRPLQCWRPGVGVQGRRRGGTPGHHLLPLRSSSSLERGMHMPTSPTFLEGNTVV
# S1P5 [9] = target: T3, S1P5; experiment: Antagonism of S1P-induced Ca2+ mobilization in S1P5-expressing HTC4 cells; assay type: cell-based
# S1P4 [10] = target: T2, S1P4; experiment: Ca2+ mobilization; assay type: cell-based; settings: Ca2+ mobilization, concentrations up to 10 μM
# LPA1,2,3,4,5 and GPR87 = experiment: Ca2+ mobilization in cells transfected with LPA receptors; assay type: cell-based; settings: data not shown
# S1P3 [11] = target: T4, S1P3; experiment: Antagonism of S1P-induced Ca2+ mobilization in S1P3-expressing HTC4 cells; assay type: cell-based
# S1P2 [12] = target: T5, S1P2; experiment: Ca2+ mobilization; assay type: cell-based; settings: concentrations up to 10 μM
# [13] = shift of S1P dose response curve
compound,measurement,setting,value
"CCCCCCCCc1ccc(CC[C@](N)(/C=C/P(=O)(O)O)CO)cc1 [(S)-ene, (S)-FTY720-vinylphosphonate]",decrease in circulating lymphocytes,C57BL/6 mice; 6 h,approximately 20%
same,circulating lymphocyte counts at 24 h,C57BL/6 mice; 24 h,restored to pretreatment levels; also recorded: no significant decrease
same,mechanism of ATX inhibition,recombinant ATX,competitive
same,Ki,"recombinant ATX; read-out: Ki, ATX, affinity for free enzyme",1000 nM
same,effect of PTX treatment on the antiapoptotic action,"IEC-6 cells; 100 ng/mL PTX overnight, 300 nM compound",partially inhibited
same,concentration of maximal protection against DNA fragmentation,"IEC-6 cells; 20 μM camptothecin 5 h, inverse bell-shape curve",300 nM
same,reduction in DNA fragmentation elicited by camptothecin,"IEC-6 cells; 15 min pretreatment, 20 μM camptothecin 5 h",significant and dose-dependent reduction
same,attenuation of DNA fragmentation at concentrations above 1 μM,IEC-6 cells; above 1 μM,no longer showed an attenuation
same,inhibition of sphingosine kinase 1,sphingosine kinase 1,inhibitor
same,"inhibition of the S1P response, P2Y10",P2Y10/Gα16; 300 nM S1P,No inhibition at 30 mM (300 nM S1P)
same,inhibitory effect on P2Y10 when co-applied with S1P,P2Y10/Gα16; concentrations up to 30 μM,no inhibitory effect
same,desensitization of the S1P1 response to S1P after preincubation,S1P1 [1],almost no effect; also recorded: did not induce
same,antagonist character at S1P4,S1P4 [2]; S1P near EC70,full antagonist
same,Ki,"S1P4 [2]; read-out: Ki, S1P4, cotreated with 5 nM S1P, ± SD",1190 nM
same,S1P5 activation (in words),S1P5 [3],failed to activate
same,"S1P1 activation, agonist character (in words)",S1P1 [4],did not activate
same,antagonist character at S1P1,S1P1 [5]; S1P near EC70,full antagonist
same,"pKb, S1P1 (Schild analysis)",S1P1 [5]; average residual error 1.09,7.10 M
same,Ki,"S1P1 [5]; read-out: Ki, S1P1, cotreated with 3 nM S1P, ± SD",384 nM
same,"mechanism of antagonism, S1P1",S1P1 [5]; [13],competitive inhibition
same,effect of overnight PTX treatment on ERK1/2 activation,"[6]; 100 ng/mL PTX, S1P 300 nM 5 min, (S)- or (R)-ene 1 μM 10 min",no significant effect
same,time of peak ERK1/2 and AKT phosphorylation,[6]; IEC-6 cells,5 to 15 min
same,ERK1/2 and AKT phosphorylation,"[6]; IEC-6 cells, 100 nM",elicited ERK1/2 and AKT phosphorylation
same,S1P1-eGFP receptor internalization,S1P1-eGFP,failed to cause redistribution; also recorded: did not induce; also recorded: failed to cause receptor internalization
same,S1P3 activation (in words),S1P3 [7],inactive
same,antagonist character at S1P2,S1P2 [8]; S1P near EC70,partial antagonist
same,"maximal % inhibition of the S1P response, S1P2","S1P2 [8]; at 30, 30 nM S1P",40.0% inhibition at 30 mM (30 nM S1P)
same,antagonist character at S1P5,S1P5 [9]; S1P near EC70,partial antagonist
same,"maximal % inhibition of the S1P response, S1P5","S1P5 [9]; at 30, 30 nM S1P",60.0% inhibition at 30 mM (30 nM S1P)
same,S1P4 activation (in words),S1P4 [10],failed to activate
same,Ca2+ mobilization responses in cells transfected with LPA receptors,"LPA1,2,3,4,5 and GPR87",unable to detect
same,antagonist character at S1P3,S1P3 [11]; S1P near EC70,full antagonist
same,"pKb, S1P3 (Schild analysis)",S1P3 [11]; average residual error 0.62,7.61 M
same,Ki,"S1P3 [11]; read-out: Ki, S1P3, cotreated with 10 nM S1P, ± SD",39 nM
same,"mechanism of antagonism, S1P3",S1P3 [11]; [13],competitive inhibition
same,S1P2 activation (in words),S1P2 [12],failed to activate
